Results reported in PubChem BioAssay (NCI).
Where “and” joins values, the source holds several entries; their conditions need not be identical. Equal entries are not always repeated.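 Tested at 5 concentrations; 48 h exposure; 96-well plates; endpoints linearly interpolated, else capped at highest concentration. The concentration for 50% growth inhibition is given as GI50. TGI: concentration producing complete growth inhibition.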

What was measured:
Experiment in all cases: NCI anticancer screen, dose series, 48 h
HCT-116 colon = tested on: HCT-116 colon
HL-60(TB) leukemia = tested on: HL-60(TB) leukemia
HOP-62 NSCLC = tested on: HOP-62 NSCLC
HOP-92 NSCLC = tested on: HOP-92 NSCLC
HT29 colon = tested on: HT29 colon
MCF7 breast = tested on: MCF7 breast
NCI-H23 lung = tested on: NCI-H23 lung
NCI-H522 lung = tested on: NCI-H522 lung
NCI/ADR-RES ovarian = tested on: NCI/ADR-RES ovarian
SNB-19 CNS = tested on: SNB-19 CNS

Structure (SMILES) | GI50 (HCT-116 colon) | TGI (HCT-116 colon) | GI50 (HL-60(TB) leukemia) | TGI (HL-60(TB) leukemia) | GI50 (HOP-62 NSCLC) | TGI (HOP-62 NSCLC) | GI50 (HOP-92 NSCLC) | TGI (HOP-92 NSCLC) | GI50 (HT29 colon) | TGI (HT29 colon) | GI50 (MCF7 breast) | TGI (MCF7 breast) | GI50 (NCI-H23 lung) | TGI (NCI-H23 lung) | GI50 (NCI-H522 lung) | TGI (NCI-H522 lung) | GI50 (NCI/ADR-RES ovarian) | TGI (NCI/ADR-RES ovarian) | GI50 (SNB-19 CNS) | TGI (SNB-19 CNS)
CCOC(=O)/C(=C\c1ccc2ccccc2c1)P(=O)(OCC)OCC | 2.22 µM | 5.08 µM | 2.15 µM | 5.16 µM | 2.61 µM | 7.24 µM | 2.44 µM | 5.31 µM | 2.8 µM | 8.18 µM | 2.14 µM | 7.12 µM | 1.95 µM | 4.78 µM | 1.52 µM | 3.35 µM | 3.15 µM | 11.2 µM | 4.45 µM | 18.6 µM
CCOc1ccc2cc(-c3nn(CC4CCNCC4)c4ncnc(N)c34)ccc2c1 | 13.4 µM | 29.3 µM | 14.7 µM | 32.6 µM | 16.3 µM | 39.4 µM | 4.96 µM | 24.9 µM | 10.9 µM | 32 µM | 11.2 µM | 24.8 µM | 13.4 µM | 31.9 µM | 15.8 µM | 30.4 µM | 15.6 µM | 29.8 µM | 16.7 µM | 34.5 µM
Cc1nc2ccccc2c(=O)n1/N=C(\N=Nc1cc(Cl)ccc1Cl)c1ccccc1 |  | > 31.6 µM |  | > 100 µM |  | > 100 µM |  | > 100 µM |  | > 88.7 µM |  | > 100 µM |  | > 100 µM |  | 81.7 µM |  | > 100 µM |  | > 31.6 µM
COc1cc(-c2nn(-c3cccc(NC(=O)CCN4CCN(c5ccccc5)CC4)c3)cc2-c2ccncc2)ccc1Cl | 2.85 µM | > 100 µM | 3.63 µM | > 100 µM | 4.32 µM | > 100 µM | 2.92 µM | 19.5 µM | 2.66 µM | > 100 µM | 2.55 µM | > 100 µM | 3.09 µM | > 100 µM | 2.43 µM | 9.69 µM | 3.18 µM | > 100 µM | 4.38 µM | > 100 µM
CN1CC[C@H](c2c(O)cc(O)c3c(=O)cc(-c4ccccc4Cl)oc23)[C@H](O)C1 | 0.0123 µM | > 10 µM | 0.0508 µM | > 2.49 µM | 0.0515 µM | > 2.62 µM | 0.0693 µM | 0.524 µM |  | > 10 µM | 0.028 µM | > 10 µM | 0.0793 µM | 0.609 µM | 0.102 µM | 0.847 µM | 0.116 µM | > 10 µM | 0.0647 µM | > 10 µM
COc1cc2c(c(OC)c1OC)C(=O)NCCC2 |  | > 100 µM |  | > 63.1 µM |  | > 100 µM |  | > 100 µM |  | > 100 µM |  | > 100 µM |  | > 100 µM |  | > 100 µM |  | > 100 µM |  | > 100 µM
COc1cc2c3cc1Oc1c(OC)c(OC)cc4c1C(Cc1ccc(O)c(c1)Oc1ccc(cc1)CC3N(C)CC2)N(C)CC4 (stereo unspecified) | 5.56 µM | > 100 µM and 49.5 µM | 20.2 µM | 91.3 µM and 54.6 µM | 24.3 µM | > 100 µM and 64.8 µM | 17.2 µM | 94.2 µM and 41.1 µM | 1.78 µM | > 100 µM and 32.8 µM | 11.5 µM | > 100 µM and 66.8 µM |  | 31.1 µM and > 100 µM | 13.4 µM | > 100 µM and 30.4 µM |  | > 100 µM | 31.5 µM | 65.8 µM and > 100 µM
CCOC(=O)[C@@H]1CSC(CC)=C(C(=O)O)N1 | > 100 µM | > 100 µM | > 100 µM | > 100 µM | > 100 µM | > 100 µM | > 100 µM | > 100 µM | > 100 µM | > 100 µM | > 100 µM | > 100 µM | > 100 µM | > 100 µM | > 100 µM | > 100 µM | > 100 µM | > 100 µM | > 100 µM | > 100 µM
C#C[C@]1(O)CC[C@H]2[C@@H]3CC=C4c5nc(N)sc5CC[C@]4(C)[C@H]3CC[C@@]21C | 3.91 µM | 19.6 µM | 2.65 µM | 7.04 µM | 3.43 µM | 14.7 µM | 3.7 µM | 19.5 µM | 3.04 µM | 12.4 µM | 3.54 µM | 10.1 µM | 4.38 µM | 24.3 µM | 2.52 µM | 7.94 µM | 3.19 µM | 16 µM | 6.2 µM | 31.1 µM
O=C(O)c1ccccc1NCn1c(=S)sc2ccccc21 |  | > 100 µM |  | 38 µM |  | > 100 µM |  | > 100 µM |  | > 100 µM |  | 51.7 µM |  | 63.4 µM |  | 78.3 µM |  | > 100 µM |  | > 100 µM
COc1cc2ncnc(Oc3cccc(NC(=O)Nc4cc(C(C)(C)C(F)(F)F)on4)c3)c2cc1OC | 0.618 µM and 0.843 µM | 11 µM and > 10 µM | 2.7 µM and 0.816 µM | > 28.5 µM | 2.45 µM and 2.53 µM | 16.8 µM and > 10 µM | 0.571 µM and 1.13 µM | 3.41 µM and 5.29 µM | 0.197 µM and 0.215 µM | 6.9 µM and > 10 µM | 2.79 µM and 3.18 µM | 15 µM and > 10 µM | 1.28 µM and 1.43 µM | 11.7 µM and > 10 µM | 0.37 µM and 0.407 µM | 12.6 µM and > 7.06 µM | 2.99 µM and 2.86 µM | 24.6 µM and > 10 µM | 4.5 µM and 4.99 µM | > 100 µM
COc1ccc2c(c1)C(=O)c1c-2c(OCCN(C)C)nc2cc(OC)c(OC)cc12 | 1.08 µM | 19.6 µM | 51.6 µM | > 100 µM | 1.32 µM | 32 µM | 3.22 µM | 19.6 µM | 1.76 µM | 18.1 µM | 0.271 µM | 14.9 µM | 9.32 µM | 22.9 µM | 10.6 µM | > 100 µM | 4.58 µM | 42.3 µM | 2.28 µM | 31.5 µM
C[C@@H]1CCc2ncc(F)cc2[C@H]2CCCN2c2ccn3ncc(c3n2)C(=O)N1 | > 100 µM | > 100 µM | > 100 µM | > 100 µM | 60 µM | > 100 µM | 47.8 µM | > 100 µM | 68.3 µM | > 100 µM | 53.1 µM | > 100 µM | > 100 µM | > 100 µM | 83.7 µM | > 100 µM | > 100 µM | > 100 µM | > 100 µM | > 100 µM
OCC(O)C(O)C(O)C(O)c1nnc2c(-c3ccccc3)nc3ccccc3n12 (stereo unspecified) | > 100 µM | > 100 µM | > 100 µM | > 100 µM | > 100 µM | > 100 µM | > 100 µM | > 100 µM | 86.3 µM | > 100 µM | 43.5 µM | > 100 µM | > 100 µM | > 100 µM | 64.1 µM | > 100 µM | 69.2 µM | > 100 µM | > 100 µM | > 100 µM
CC(O)[C@H](NC(=O)N[C@@H](CC(N)=O)c1nc(N2CCNCC2)no1)C(=O)O (stereo partly specified) | > 100 µM | > 100 µM | > 100 µM | > 100 µM | > 100 µM | > 100 µM | > 100 µM | > 100 µM | > 100 µM | > 100 µM | > 100 µM | > 100 µM | > 100 µM | > 100 µM | > 100 µM | > 100 µM | > 100 µM | > 100 µM | > 100 µM | > 100 µM
Cc1cc(S(N)(=O)=O)c(S/C(=N\NS(=O)(=O)c2ccccc2)c2ccc(Cl)cc2)cc1Cl | 77 µM | > 100 µM | 50.6 µM | > 100 µM | > 100 µM | > 100 µM | 30.3 µM | 84.9 µM | > 100 µM | > 100 µM | 75.3 µM | > 100 µM | 87.9 µM | > 100 µM | 23.2 µM | 87.7 µM | > 100 µM | > 100 µM | > 100 µM | > 100 µM
COc1cccc(-c2nc3sccn3c2-c2ccnc(NCCCNS(=O)(=O)c3ccccc3)c2)c1 | 3.32 µM | > 100 µM | 2.33 µM | 5.63 µM | 3.43 µM | > 100 µM | 0.885 µM | > 100 µM | 3.23 µM | > 100 µM | 3.83 µM | > 100 µM | 2.99 µM | > 100 µM | 2.34 µM | 15 µM | 2.62 µM | 8.7 µM | 4.92 µM | > 100 µM
C=CC(=O)Nc1cc2c(Nc3ccc(F)c(Cl)c3)ncnc2cc1C#CC(C)(C)N1CCN(C)CC1 | 1.52 µM | 3.01 µM | 1.88 µM | 5.08 µM | 3.53 µM | 5.9 µM | 0.29 µM | 1.78 µM | 1.56 µM | 4.09 µM | 0.995 µM | 3.17 µM | 1.72 µM | 3.78 µM | 0.456 µM | 2.28 µM | 2.46 µM | 7.65 µM | 3.58 µM | 5.05 µM
CC(=O)Oc1cc2cnc3c4cc(OC(C)=O)c(OC(C)=O)cc4ccc3c2cc1OC(C)=O | 0.471 µM | 3.86 µM | 3.26 µM | 19.8 µM | 1.86 µM | 59.4 µM | 0.538 µM | 37.9 µM | 4.18 µM | > 100 µM | 0.638 µM | > 100 µM | 2.54 µM | > 100 µM | 0.392 µM | 4.56 µM | 1.88 µM | > 100 µM | 0.594 µM | 65.9 µM
CS(=O)(=O)Nc1cc(-c2ccc3ncnc(Nc4cccc(Cl)c4)c3c2)cnc1Cl | 0.664 µM | 5.87 µM | 0.174 µM | 17.7 µM | 0.22 µM | 5.29 µM | 0.122 µM | 0.96 µM | 0.319 µM | 5.84 µM | 0.215 µM | 13.6 µM | 0.328 µM | 10.6 µM | 0.391 µM | 6.86 µM | 1.19 µM | 12 µM | 0.717 µM | 5.05 µM
COc1ccc(C2=Nn3c(nnc3-n3nc(C)cc3C)SC2)cc1 | 0.0554 µM | > 100 µM | 0.0358 µM | 0.482 µM | 0.0839 µM | > 100 µM | 0.0245 µM | 0.836 µM | 0.0401 µM |  | 0.0642 µM | > 100 µM | 0.18 µM | > 100 µM | 0.031 µM | 0.529 µM | 0.0536 µM | > 100 µM | 0.0831 µM | > 100 µM
